The data set relates to Dkk1-LRP5-TCF-Luciferase. The data set can be described thus: Functional Dkk1-LRP5-TCF-Luciferase Assay in U2OS Cells. The conditions noted are these: for fold induction at 2 µM / fold induction at 20 µM / pEC50: Homo sapiens, U2OS; for fold induction at 2 µM: read-out: B = TCF ACTIVITY/DMSO CONTROL Fold induction @ 2.0 uM, 2.0 uM compound; for fold induction at 20 µM: read-out: C = TCF ACTIVITY/DMSO CONTROL Fold induction @ 20.0 uM, 20.0 uM compound; for A = MAX FOLD Induction/DMSO CONTROL: maximum fold induction over DMSO control.

Consider 32 compounds from US20090054392A1, “NAPHTHYLPYRIMIDINE, NAPHTHYLPYRAZINE AND NAPHTHYLPYRIDAZINE ANALOGS AND THEIR USE AS AGONISTS OF THE WNT-BETA-CATENIN CELLULAR MESSAGING SYSTEM” (Wyeth, priority 2007, published 2009).

pEC50: −log10 of the molar value.

Regarding `CN(C)[C@@H]1CCN([C@@H]2CCN(c3nccc(-c4ccc5ccccc5c4)n3)C2)C1` [(3R,3′R)-N,N-dimethyl-1′-[4-(2-naphthyl)pyrimidin-2-yl]-1,3′-bipyrrolidin-3-amine], the fold induction at 2 µM came out at 2.71, the fold induction at 20 µM was 0.01 and the “A = MAX FOLD Induction/DMSO CONTROL” value was determined as 1.710 fold.

`O[C@@H]1CCN([C@H]2CCN(c3nccc(-c4ccc5ccccc5c4)n3)C2)C1` [(3R,3′S)-1′-[4-(2-naphthyl)pyrimidin-2-yl]-1,3′-bipyrrolidin-3-ol]: the fold induction at 2 µM stood at 2.1.

Consider `CN(C)[C@@H]1CCN([C@H]2CCN(c3nccc(-c4ccc5ccccc5c4)n3)C2)C1` [(3R,3′S)-N,N-dimethyl-1′-[4-(2-naphthyl)pyrimidin-2-yl]-1,3′-bipyrrolidin-3-amine], for which the pEC50 – broadly, −log10 of the EC50, conventionally taken in molar units – is 5.97; the fold induction at 2 µM was determined as 4.17; the “A = MAX FOLD Induction/DMSO CONTROL” value was determined as 4.637 fold.

Regarding `O[C@H]1CCCN(CC2CCN(c3nccc(-c4ccc5ccccc5c4)n3)C2)C1` (stereo partly drawn) [(3S)-1-({1-[4-(2-naphthyl)pyrimidin-2-yl]pyrrolidin-3-yl}methyl)piperidin-3-ol], the pEC50 is 6.00, the fold induction at 2 µM is 4.34 and the “A = MAX FOLD Induction/DMSO CONTROL” value is 6.950 fold.

As to `O[C@H]1CCN(CC2CCN(c3nccc(-c4ccc5ccccc5c4)n3)C2)C1` (stereo partly drawn) [(3S)-1-({1-[4-(2-naphthyl)pyrimidin-2-yl]pyrrolidin-3-yl}methyl)pyrrolidin-3-ol], the fold induction at 2 µM stood at 3.2.

On to `FC(F)(F)CN[C@H]1CCN(c2nccc(-c3ccc4ccccc4c3)n2)C1` [(3S)-1-[4-(2-naphthyl)pyrimidin-2-yl]-N-(2,2,2-trifluoroethyl)pyrrolidin-3-amine], for which the fold induction at 2 µM was found to be 0.83 and the fold induction at 20 µM stood at 1.38.

Regarding `N[C@H]1CCN(c2nccc(-c3ccc4ccccc4c3)n2)C1` [(3S)-1-[4-(2-naphthyl)pyrimidin-2-yl]pyrrolidin-3-amine], the fold induction at 2 µM came to 1.48.

`O[C@H]1CCCN([C@@H]2CCN(c3nccc(-c4ccc5ccccc5c4)n3)C2)C1` [(3S)-1-{(3R)-1-[4-(2-naphthyl)pyrimidin-2-yl]pyrrolidin-3-yl}piperidin-3-ol] showed a pEC50 of 5.62.

The compound `O[C@H]1CCCN([C@H]2CCN(c3nccc(-c4ccc5ccccc5c4)n3)C2)C1` [(3S)-1-{(3S)-1-[4-(2-naphthyl)pyrimidin-2-yl]pyrrolidin-3-yl}piperidin-3-ol] had a pEC50 of 6.03.

For `O=CN1CC[C@H](Nc2nccc(-c3ccc4ccccc4c3)n2)C1` [(3S)-3-{[4-(2-naphthyl)pyrimidin-2-yl]amino}pyrrolidine-1-carbaldehyde], the pEC50 is 5.17, the fold induction at 2 µM is 1.8, the fold induction at 20 µM is 3.51 and the “A = MAX FOLD Induction/DMSO CONTROL” value was 3.165 fold.

For `NC(=O)N1CC[C@H](Nc2nccc(-c3ccc4ccccc4c3)n2)C1` [(3S)-3-{[4-(2-naphthyl)pyrimidin-2-yl]amino}pyrrolidine-1-carboxamide], the pEC50 is 5.82, the fold induction at 2 µM came out at 2.05, the fold induction at 20 µM came out at 2.94 and the “A = MAX FOLD Induction/DMSO CONTROL” value came out at 2.750 fold.

On to `CN(C)[C@H]1CCN(C[C@H]2CCN(c3nccc(-c4ccc5ccccc5c4)n3)C2)C1` [(3S)—N,N-dimethyl-1-({(3R)-1-[4-(2-naphthyl)pyrimidin-2-yl]pyrrolidin-3-yl}methyl)pyrrolidin-3-amine], for which the fold induction at 2 µM amounted to 2.55, the fold induction at 20 µM stood at 0.02 and the “A = MAX FOLD Induction/DMSO CONTROL” value stood at 2.260 fold.

As to `CN(C)[C@H]1CCN(C[C@@H]2CCN(c3nccc(-c4ccc5ccccc5c4)n3)C2)C1` [(3S)—N,N-dimethyl-1-({(3S)-1-[4-(2-naphthyl)pyrimidin-2-yl]pyrrolidin-3-yl}methyl)pyrrolidin-3-amine], the fold induction at 2 µM stood at 2.08, the fold induction at 20 µM stood at 0.01 and the “A = MAX FOLD Induction/DMSO CONTROL” value is 1.660 fold.

Take `CN(C)[C@H]1CCN(c2nccc(-c3ccc4ccccc4c3)n2)C1` [(3S)—N,N-dimethyl-1-[4-(2-naphthyl)pyrimidin-2-yl]pyrrolidin-3-amine]: the negative logarithm of the EC50 (pEC50) was 5.52, the fold induction at 20 µM amounted to 0.08 and the “A = MAX FOLD Induction/DMSO CONTROL” value stood at 3.390 fold.

`CN(C)[C@H]1CCN(C(=O)[C@H]2CCCN2c2nccc(-c3ccc4ccccc4c3)n2)C1` [(3S)—N,N-dimethyl-1-{1-[4-(2-naphthyl)pyrimidin-2-yl]-D-prolyl}pyrrolidin-3-amine]: the fold induction at 2 µM was found to be 1.05, the fold induction at 20 µM was 2.43 and the “A = MAX FOLD Induction/DMSO CONTROL” value is 2.115 fold.

As to `CN(C)[C@H]1CCN(C(=O)[C@@H]2CCCN2c2nccc(-c3ccc4ccccc4c3)n2)C1` [(3S)—N,N-dimethyl-1-{1-[4-(2-naphthyl)pyrimidin-2-yl]-L-prolyl}pyrrolidin-3-amine], the fold induction at 2 µM stood at 1.16, the fold induction at 20 µM was 3.37 and the “A = MAX FOLD Induction/DMSO CONTROL” value is reported as 2.175 fold.

Consider `CN(C)C(=O)N1CC[C@H](Nc2nccc(-c3ccc4ccccc4c3)n2)C1` [(3S)—N,N-dimethyl-3-{[4-(2-naphthyl)pyrimidin-2-yl]amino}pyrrolidine-1-carboxamide], for which the pEC50 was 5.57, the fold induction at 2 µM was determined as 2.05, the fold induction at 20 µM was found to be 3.05 and the “A = MAX FOLD Induction/DMSO CONTROL” value turned out to be 2.945 fold.

Take `CN(C)S(=O)(=O)N1CC[C@H](Nc2nccc(-c3ccc4ccccc4c3)n2)C1` [(3S)—N,N-dimethyl-3-{[4-(2-naphthyl)pyrimidin-2-yl]amino}pyrrolidine-1-sulfonamide]: the pEC50 is 5.40, the fold induction at 2 µM came out at 1.09, the fold induction at 20 µM was found to be 2.01 and the “A = MAX FOLD Induction/DMSO CONTROL” value is listed as 2.050 fold.

For the compound `c1ccc2cc(-c3ccnc(N4CC[C@H](NCCN5CCOCC5)C4)n3)ccc2c1` [(3S)—N-(2-morpholin-4-ylethyl)-1-[4-(2-naphthyl)pyrimidin-2-yl]pyrrolidin-3-amine], the fold induction at 2 µM worked out at 1.39 and the fold induction at 20 µM is 0.91.

For `CC(C)(C)N[C@H]1CCN(c2nccc(-c3ccc4ccccc4c3)n2)C1` [(3S)—N-(tert-butyl)-1-[4-(2-naphthyl)pyrimidin-2-yl]pyrrolidin-3-amine], the fold induction at 2 µM worked out at 2.39 and the “A = MAX FOLD Induction/DMSO CONTROL” value is given as 2.690 fold.

Turning to `CN(C1CCCCC1)[C@H]1CCN(c2nccc(-c3ccc4ccccc4c3)n2)C1` [(3S)—N-cyclohexyl-N-methyl-1-[4-(2-naphthyl)pyrimidin-2-yl]pyrrolidin-3-amine], the fold induction at 2 µM was found to be 1.22 and the fold induction at 20 µM was found to be 0.01.

`CCNC(=O)N1CC[C@H](Nc2nccc(-c3ccc4ccccc4c3)n2)C1` [(3S)—N-ethyl-3-{[4-(2-naphthyl)pyrimidin-2-yl]amino}pyrrolidine-1-carboxamide]: the fold induction at 2 µM worked out at 2.49, the fold induction at 20 µM worked out at 2.81 and the “A = MAX FOLD Induction/DMSO CONTROL” value was found to be 2.500 fold.

For the compound `CN[C@H]1CCN(c2nccc(-c3ccc4ccccc4c3)n2)C1` [(3S)—N-methyl-1-[4-(2-naphthyl)pyrimidin-2-yl]pyrrolidin-3-amine], the fold induction at 2 µM was found to be 1.75.

In the case of `N[C@H]1CCN([C@@H]2CCN(c3nccc(-c4ccc5ccccc5c4)n3)C2)C1` [(3S,3′R)-1′-[4-(2-naphthyl)pyrimidin-2-yl]-1,3′-bipyrrolidin-3-amine], the fold induction at 2 µM stood at 1.2.

Take `O[C@H]1CCN([C@@H]2CCN(c3nccc(-c4ccc5ccccc5c4)n3)C2)C1` [(3S,3′R)-1′-[4-(2-naphthyl)pyrimidin-2-yl]-1,3′-bipyrrolidin-3-ol]: the fold induction at 20 µM was determined as 3.

As to `CN(C)[C@H]1CCN([C@@H]2CCN(c3nccc(-c4ccc5ccccc5c4)n3)C2)C1` [(3S,3′R)-N,N-dimethyl-1′-[4-(2-naphthyl)pyrimidin-2-yl]-1,3′-bipyrrolidin-3-amine], the pEC50 is 5.95, the fold induction at 2 µM is 2.64 and the “A = MAX FOLD Induction/DMSO CONTROL” value stood at 3.175 fold.

As to `O[C@H]1CCN([C@H]2CCN(c3nccc(-c4ccc5ccccc5c4)n3)C2)C1` [(3S,3′S)-1′-[4-(2-naphthyl)pyrimidin-2-yl]-1,3′-bipyrrolidin-3-ol], the fold induction at 2 µM was determined as 2.1.

With `CN(C)[C@H]1CCN([C@H]2CCN(c3nccc(-c4ccc5ccccc5c4)n3)C2)C1` [(3S,3′S)-N,N-dimethyl-1′-[4-(2-naphthyl)pyrimidin-2-yl]-1,3′-bipyrrolidin-3-amine], the fold induction at 2 µM came to 2.47, the fold induction at 20 µM came out at 0.02 and the “A = MAX FOLD Induction/DMSO CONTROL” value came to 2.030 fold.

On to `c1ccc2cc(-c3ccnc(N4C[C@H]5CNC[C@H]5C4)n3)ccc2c1` [(3aR*,6aS*)-2-[4-(2-naphthyl)pyrimidin-2-yl]octahydropyrrolo[3,4-c]pyrrole], for which the fold induction at 2 µM is 1.73 and the fold induction at 20 µM was found to be 0.01.

For `c1ccc2cc(-c3ccnc(N4CC[C@@H]5CNC[C@@H]5C4)n3)ccc2c1` [(3aR,7aS)-5-[4-(2-naphthyl)pyrimidin-2-yl]octahydro-1H-pyrrolo[3,4-c]pyridine], the fold induction at 2 µM was determined as 1.8.

Regarding `O=C1CCCN1[C@@H]1CCN(c2nccc(-c3ccc4ccccc4c3)n2)C1` [(3′R)-1′-[4-(2-naphthyl)pyrimidin-2-yl]-1,3′-bipyrrolidin-2-one], the pEC50 is 5.35, the fold induction at 2 µM was determined as 1.43, the fold induction at 20 µM is 2.12 and the “A = MAX FOLD Induction/DMSO CONTROL” value stood at 1.935 fold.

Regarding `c1ccc2cc(-c3ccnc(N4CC[C@@H](N5CCCC5)C4)n3)ccc2c1` [(3′R)-1′-[4-(2-naphthyl)pyrimidin-2-yl]-1,3′-bipyrrolidine], the fold induction at 2 µM is 1.38, the fold induction at 20 µM was 2.62 and the “A = MAX FOLD Induction/DMSO CONTROL” value was 2.760 fold.
